Our source for the pKa values is the pKa sets of Baltruschat and Czodrowski (2020).

Where a SMILES comes first, the peptide text is derived from it.

`Cn1c([O-])nc(=O)c2[nH]cnc21` gave a pKa (acidic group) of 11.7.
For the molecule `COc1ccc(-c2ncc(-c3ccc(N)cc3)o2)cc1`, the pKa (basic group) was determined as 3.71.
Still for that read-out and setting: as for `CCN(C)CCOCCN(CC)CC`, the figure is 10.1.
`O=C(Cc1ccccc1)c1cc[n+]([CH-]c2cccc([N+](=O)[O-])c2)cc1` showed a pKa (acidic group) of 11.6.
The same measure, in the same setting: the value for `C[Si](C)(C)CCCC(=O)O` was 4.89.
Turning to `CN(C)C1CCCCC1`, the pKa (basic group) is 10.5.
On the same count and under the same terms, as for `C1N2CN3CN1CN(C2)C3`, the figure is 4.95; as for `O=C(Nc1cccnc1)c1ccccc1`, 3.8.
Take `NCc1ccc(S(N)(=O)=O)cc1`: the pKa was 10.2 (acidic group) and 8.35 (basic group).
For the molecule `Cc1nc2ccccc2nc1[O-]`, under “basic group”, the pKa was 9.88.
Molecule `Cc1ccc2c(c1)NCC[NH2+]2` displayed a pKa (basic group) of 2.03.
As for `CCCCCCCCCCCCCCN(CC(C)O)CC(C)O` (configuration not stated), where the note is “basic group”, the pKa came to 8.4.
In the case of `Cc1c[nH]cc1C(=O)O`, the pKa (acidic group) came to 5.65.
On the same count and under the same terms, as for `CC1(C)NC(=O)NC1=O`, the figure is 9.19; as for `CCc1n[nH]c(CC)n1`, 10.2.
Still for that read-out and setting: as for `OCc1ccc(O)c(CO)c1`, the figure is 9.77; as for `Cc1cc(O)c(=O)ccc1Br`, 6.6.
For the setting “acidic group”, `C[Si](C)(CC(=O)O)c1ccccc1` had a pKa of 5.27.
In turn, `CC(O)CN(CCO)C(C)(C)C` (configuration not stated) registered a pKa (basic group) of 9.2.
On the same count and under the same terms, as for `O=C([O-])[C@]12CNCC[C@H]1O2`, the figure is 9.14.
Where the note is “acidic group”, `C[C@H]1CC[C@H]2[C@H](C)CC[C@@H](C(=O)O)[NH+]2C1` displayed a pKa of 2.
The same measure, in the same setting: the value for `N#CC(C#N)=C(C(C#N)C#N)C(C#N)C#N` was 2.25; that for `c1ncc2[nH]nnc2n1` was 4.88.
As to `N=C1Cc2ccccc2N1`, where the note is “basic group”, the pKa was 8.15.
In turn, `Nc1ccccc1S(N)(=O)=O` came in with a pKa (basic group) of 1.
On the same count and under the same terms, as for `C[NH+](C)CCNCCN`, the figure is 9.12.
On to `Cn1c(=O)[nH]c(=O)c2[nH]cnc21`, for which the pKa came to 8.49 (acidic group) and 0.78 (basic group).
`O=C(O)c1ccccc1Br` had a pKa (acidic group) of 2.93.
As to `N[C@@H](Cc1c[nH]cn1)C(=O)N[C@@H](Cc1c[nH]cn1)C(=O)[O-]`, the pKa (basic group) was found to be 7.8.
`O=C(NO)c1ccccc1` yielded a pKa (acidic group) of 8.71.
The molecule `C1CN2CC[C@@H]3OC[C@H]1[C@@H]32` displayed a pKa (basic group) of 9.44.
Same read-out and setting: as for `NCC(=O)N[C@@H](Cc1c[nH]cn1)C(=O)[O-]` (H-Gly-His-OH), the figure is 8.14; as for `Cc1ccc(C(C)C)c(OCCN(C)C)c1`, 8.66.
On the same count and under the same terms, as for `Cc1cc(N)nc(N)n1`, the figure is 7.65.
Take `CNC(=O)c1ncnc2nc[nH]c12`: the pKa (acidic group) is 8.9.
With `NCc1cc(N)cc(Cl)c1`, the pKa (basic group) is 9.54.
Still for that read-out and setting: as for `Cc1cc(C)n(C)n1`, the figure is 3.96.
Where the note is “acidic group”, `NS(=O)(=O)c1ccc(P(=O)([O-])O)cc1` showed a pKa of 6.38.
Turning to `c1ccc([C@@H]2CN3CCC[C@@H]3c3ccccc32)cc1`, the pKa (basic group) came out at 9.12.
On the same count and under the same terms, as for `N/C(=[NH+]\O)c1ccccc1N`, the figure is 2.2.
As for `Nc1ncccc1O`, the pKa (acidic group) was found to be 9.5.
In turn, `C[n+]1ccc2cc(O)ccc2c1` yielded a pKa (acidic group) of 6.06.
Consider `CC(C)NCC(=O)[O-]`, for which the pKa (basic group) was 10.1.
On the same count and under the same terms, as for `Nc1cccc([NH3+])c1O`, the figure is 2.7.
Under “acidic group”, `O=C([O-])C[NH2+]CCc1nnn[nH]1` had a pKa of 4.32.
The same measure, in the same setting: as for `C=C(F)C(=O)O`, the figure is 2.55.
`C=Cc1ccncc1`: the pKa (basic group) stood at 5.62.
For the molecule `O=C1CCCC(=O)C1`, the pKa (acidic group) was 5.26.
Consider `CC(O)CN(CCCN1CCOCC1)CC(C)O` (configuration not stated), for which, under “basic group”, the pKa came out at 8.4.
Still for that read-out and setting: the value for `Cc1cc(N)c(C)cn1` was 9.68.
In the case of `CC(C)COc1ccc(C(=O)O)cc1`, where the note is “acidic group”, the pKa was found to be 4.48.
`CC1(C)S[C@H]2[C@@H](NC(=O)Cc3ccc(N)cc3)C(=O)N2[C@@H]1C(=O)[O-]` yielded a pKa (basic group) of 4.6.
Still for that read-out and setting: as for `OCCNC1CC[NH+](Cc2ccccc2)CC1`, the figure is 6.67.
`CC(=O)C1C(=O)OC(=O)C=C1C` (configuration not stated) had a pKa (acidic group) of 1.34.
`CCCCCCCCCCCCCCCCN(CC(O)CC)CC(O)CC` (configuration not stated) yielded a pKa (basic group) of 5.6.
Take `O=C(O)c1cc2ccccc2o1`: the pKa (acidic group) worked out at 2.84.
For the setting “basic group”, `CCN(C(C)C)C(C)C` yielded a pKa of 11.4.
In turn, `Nc1[nH]cc(O)[nH+]1` showed a pKa (acidic group) of 4.8.
Take `CN1C[C@H](C(=O)[O-])C[C@@]2(O)c3cccc4[nH]cc(c34)C[C@H]12`: the pKa (basic group) was found to be 9.17.
For `C[NH+](C)CCCCCCNC(=O)/C=N/O`, the pKa (acidic group) amounted to 8.93.
For `CCN(CC)Cc1cc([N+](=O)[O-])c2ccccc2c1[O-]`, the pKa (basic group) is 11.
In the case of `Oc1cccc[nH+]1`, where the note is “acidic group”, the pKa is 0.75.
On the same count and under the same terms, the value for `O=C(O)C(CO)[NH2+]Cc1ccccc1O` (configuration not stated) was 2.1; that for `SCC[NH2+]CCc1ccccc1` was 7.85.
`[NH3+]Nc1nncc2ccccc12`: for the setting “basic group”, the pKa worked out at 2.9.
`CCC(N)CCCl` (configuration not stated) gave a pKa (basic group) of 8.53.
Under “acidic group”, `Oc1ccccc1-c1ccccc1` came in with a pKa of 9.99.
Consider `O=C(Cc1ccccc1)C(CN1CCOCC1)c1ccccc1` (configuration not stated), for which, under “basic group”, the pKa was 6.17.
As for `Cc1cc(CN)c(O)c(CN)c1`, the pKa (basic group) came out at 9.7.
On the same count and under the same terms, as for `[NH3+]CCC(=O)N[C@@H](Cc1cnc[nH]1)C(=O)[O-]`, the figure is 6.74.

The term pKa denotes the pH at which an ionisable group is half protonated. High values mean a weaker acid or stronger base, low ones a stronger acid or weaker base.
